Experiments:
[1] = target: T1, human L-type amino acid transporter 2 (LAT2; S2-hLAT2 cells) (Homo sapiens, UniProt Q9UHI5); test: Inhibition of L-[14C]leucine uptake in S2-LAT2 cells; assay type: cell-based; settings: inhibition of 1.0 μM L-[14C]leucine uptake, 1.0 min, 37° C., NI = no inhibition at 100 μM
T1 construct: expressed in transfected cells; host or cells: S2 cells (S2-hLAT2 / S2-LAT2); mammalian cell line described in Morimoto et al., J Pharmacol Sci 2008, 108, 505-516
T1 sequence (Q9UHI5 1-535): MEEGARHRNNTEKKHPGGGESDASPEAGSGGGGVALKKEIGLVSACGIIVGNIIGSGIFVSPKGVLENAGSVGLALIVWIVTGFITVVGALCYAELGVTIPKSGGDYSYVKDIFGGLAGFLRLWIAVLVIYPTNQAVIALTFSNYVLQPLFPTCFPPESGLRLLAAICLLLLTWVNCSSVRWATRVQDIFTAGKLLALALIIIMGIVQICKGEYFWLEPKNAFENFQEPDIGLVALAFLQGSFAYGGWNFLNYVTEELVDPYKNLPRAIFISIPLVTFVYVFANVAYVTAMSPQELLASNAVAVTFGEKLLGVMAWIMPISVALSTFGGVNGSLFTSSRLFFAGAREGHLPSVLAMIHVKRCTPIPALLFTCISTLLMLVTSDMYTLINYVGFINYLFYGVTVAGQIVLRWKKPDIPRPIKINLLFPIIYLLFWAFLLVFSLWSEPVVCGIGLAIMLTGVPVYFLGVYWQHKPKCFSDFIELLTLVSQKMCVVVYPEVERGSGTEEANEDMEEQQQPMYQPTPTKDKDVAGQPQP
T1 sequence (P08195 1-529 partner): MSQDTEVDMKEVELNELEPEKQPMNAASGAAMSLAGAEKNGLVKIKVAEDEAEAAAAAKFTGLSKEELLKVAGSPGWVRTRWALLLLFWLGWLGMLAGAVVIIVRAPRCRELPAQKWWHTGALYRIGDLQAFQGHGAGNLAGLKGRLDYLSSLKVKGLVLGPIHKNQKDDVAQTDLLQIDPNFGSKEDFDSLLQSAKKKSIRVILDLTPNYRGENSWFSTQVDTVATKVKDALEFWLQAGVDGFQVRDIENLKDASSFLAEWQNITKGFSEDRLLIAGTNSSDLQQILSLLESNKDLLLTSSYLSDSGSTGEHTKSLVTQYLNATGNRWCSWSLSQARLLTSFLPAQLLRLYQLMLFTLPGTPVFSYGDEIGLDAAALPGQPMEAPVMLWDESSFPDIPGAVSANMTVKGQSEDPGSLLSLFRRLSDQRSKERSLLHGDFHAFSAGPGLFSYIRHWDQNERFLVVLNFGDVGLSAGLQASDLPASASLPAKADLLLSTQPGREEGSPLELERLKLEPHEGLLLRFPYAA
Protocol: (§1) The establishment and characterization of mammalian cell lines expressing human L-type amino acid transporterss (i.e. S2-hLAT1 and S2-hLAT2) has been previously described (Morimoto et al., Journal of Pharmacological Sciences, 2008, 108, 505-516).
(§2) General test procedures are as follows: All test compounds were dissolved in dimethyl sulfoxide (DMSO) to prepare stock solutions at the concentrations of 0.05, 0.5, 5.0 and 50 mM; next, these stock solutions were used and diluted with uptake solution to make final test concentrations of 0.10, 1.00, 10.0 and 100 μM, respectively. Therefore, all compounds used for uptake experiment were in uptake solution containing 0.2% DMSO; experiments are performed in triplicate for each concentration. For control uptake, only DMSO was added into the uptake solution to a final concentration of 0.2%.
(§3) S2-LAT1 and S2-LAT2 cells were seeded (1.3×10^5 cells/well) into 24-well plates and cultured at 33° C. (5% CO2) for 2-3 days until confluent (90%-100% confluence). Uptake experiments were performed at 37° C. The culture medium was removed and washed 3 times with uptake solution (37° C.; Hank's Na^+ free buffer consisting of 125 mM choline chloride, 4.8 mM KCl, 1.3 mM CaCl2, 1.2 mM MgCl2, 25.0 mM HEPES, and 5.0 mM Tris, pH 7.4, supplemented with D-glucose (5.6 mM). The cells were equilibrated in uptake solution (300 μL; 37° C.) for 12 min. The equilibrated solution was removed and uptake solution containing radio-labeled compound (1.0 μM L-[^14C] Leucine) with or without test compound (300 μL) was added to the cells (1.0 min). The test solution was removed and the cells washed 3 times with ice-cold uptake solution. The cells are then solubilized with 0.1N NaOH (0.5 mL) and transferred to scintillation vials. Liquid scintillation fluid (3.0 mL; aquasol-2) was added, mixed and substrate accumulation was measured by counting radioactivity via liquid scintillation counting (LSC; LSC6100, Aloka, Tokyo). The uptake value and % of inhibition were calculated to afford IC50 values.

[2] = target: T2, human L-type amino acid transporter 1 (LAT1; S2-hLAT1 cells) (Homo sapiens, UniProt Q01650); test: Inhibition of L-[14C]leucine uptake in S2-LAT1 cells; assay type: cell-based; settings: inhibition of 1.0 μM L-[14C]leucine uptake, 1.0 min, 37° C., NI = no inhibition at 100 μM
T2 construct: expressed in transfected cells; host or cells: S2 cells (S2-hLAT1 / S2-LAT1); mammalian cell line described in Morimoto et al., J Pharmacol Sci 2008, 108, 505-516
T2 sequence (Q01650 whole entry, one chain of several): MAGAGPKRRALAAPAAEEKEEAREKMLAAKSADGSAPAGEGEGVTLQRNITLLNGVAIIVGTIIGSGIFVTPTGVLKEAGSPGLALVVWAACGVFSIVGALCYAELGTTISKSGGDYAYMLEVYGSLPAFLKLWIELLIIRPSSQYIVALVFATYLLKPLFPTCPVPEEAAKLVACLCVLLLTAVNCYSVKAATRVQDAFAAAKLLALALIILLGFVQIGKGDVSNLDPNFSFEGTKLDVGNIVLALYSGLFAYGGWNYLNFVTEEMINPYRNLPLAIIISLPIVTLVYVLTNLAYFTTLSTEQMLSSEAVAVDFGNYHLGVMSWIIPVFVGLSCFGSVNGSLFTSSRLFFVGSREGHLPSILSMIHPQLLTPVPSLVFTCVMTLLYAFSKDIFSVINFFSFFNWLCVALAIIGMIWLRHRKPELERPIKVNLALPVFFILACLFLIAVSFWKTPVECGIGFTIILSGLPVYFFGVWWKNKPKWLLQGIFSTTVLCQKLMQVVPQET
Protocol: as §1, §2, §3

Compound CCOc1ccc(COc2c(Cl)cc(C[C@H](N)C(=O)O)cc2Cl)cc1OCC [compound 141] has an IC50 [1] of 44.9 µM and an IC50 [2] of 2.9 µM.
